The text below walks through data of US20210213063A1, “COMBINATION THERAPY WITH CHIMERIC ANTIGEN RECEPTOR (CAR) THERAPIES” (Novartis AG, priority 2018, published 2021).

One data set relates to MCL. Conditions: ibrutinib added to CART19 therapy.
Data set [1] relates to relapsed/refractory diffuse large B-cell lymphoma (DLBCL). As to the kind of experiment: JULIET (NCT02445248) pivotal phase 2 trial of tisagenlecleucel in adult r/r DLBCL. Type of data set: in vivo, human. From the text: This Example describes the JULIET (NCT02445248) clinical trial, which is a single-arm, open-label, multicenter, global, pivotal phase 2 trial of tisagenlecleucel, a chimeric antigen receptor (CAR)-T cell therapy targeting CD19, that has shown a high rate of durable complete responses (CR) and a manageable safety profile in adult patients with relapsed/refractory (r/r) diffuse large B-cell lymphoma (DLBCL). The primary objective was met at the interim analysis, with an overall response rate (ORR) of 59% (CR, 43%; partial response [PR], 16%). An updated analysis of the JULIET trial is presented herein with 19 months of follow-up, an additional 5 months since the previous report.
The primary endpoint was ORR (CR+PR) per independent review committee. Efficacy results are reported for patients in the main cohort with ≥3 months follow-up or earlier discontinuation; safety is reported for all infused patients.
At data cutoff (21 May 2018), 167 patients were enrolled and 115 were infused (99 with US-manufactured [main cohort] and 16 with EU-manufactured [cohort A] tisagenlecleucel) with a single dose of tisagenlecleucel (median, 3.0×10^8 [range, 0.1-6.0×10^8] CAR19-positive viable T cells). 90% of patients received bridging therapy and 93% received lymphodepleting chemotherapy. Median time from infusion to data cutoff was 19.3 months. Median age was 56 years (range, 22-76); 23% were ≥65 years. At study entry, 77% of infused patients had stage III/IV disease, 17% had double/triple hits in MYC/BCL2/BCL6. 55% and 43% had germinal center and activated B-cell molecular subtypes, respectively. 51% of patients had received ≥3 prior lines of antineoplastic therapy (range, 1-6); 49% had undergone a prior ASCT. All 99 patients in the main cohort had ≥3 months of follow-up or discontinued earlier and were evaluable for efficacy. ORR was 54% (95% CI, 43%-64%) with 40% CR and 13% PR. ORR was consistent across prognostic subgroups (including prior ASCT and double/triple-hit lymphoma) Median duration of response (DOR) was not reached; the probability of being relapse-free was 66% (95% CI, 51%-78%) at 6 months and 64% (95% CI, 48%-76%) at 12 months. DOR was similar by age group (≥ vs <65y) and by relapsed or refractory status (Figure). Median OS among all infused patients was 11.1 months (95% CI, 6.6-NE); OS probability at month 12, 48% (95% CI, 38%-57%; max follow-up, 29 months). No patients proceeded to allogeneic/ASCT while in remission.

For `C=CC(=O)N1CCC[C@@H](n2nc(-c3ccc(Oc4ccccc4)cc3)c3c(N)ncnc32)C1` [ibrutinib, 1-[(3R)-3-[4-Amino-3-(4-phenoxyphenyl)-1H-pyrazolo[3,4-d]pyrimidin-1-yl]piperidin-1-yl]prop-2-en-1-one], in the data set with MCL, the “CART19-mediated CRS” value is “reduced the CART19-mediated CRS” and the “survival of the mice” value is reported as “prolonged survival”.

On to tisagenlecleucel, for which, in data set [1] (all infused patients, 95% CI 6.6-NE), the “Median OS” value was 11.1 months. Also, the “probability of being relapse-free” value in data set [1] (at 6 months, 95% CI 51%-78%) worked out at 66%. For the same compound, the “probability of being relapse-free” value in data set [1] (at 12 months, 95% CI 48%-76%) is on record as 64%. The OS probability in data set [1] (at month 12, 95% CI 38%-57%) stood at 48%. Further, in data set [1] (interim analysis), the CR was found to be 43%, the “overall response rate (ORR)” value is reported as 59% and the “partial response [PR]” value stood at 16%. The “Median duration of response (DOR)” value in data set [1] (updated analysis) was “not reached”. This compound also registered an ORR in data set [1] (updated analysis, data cutoff 21 May 2018, 99 patients main cohort, 95% CI 43%-64%) of 54%. For the same compound, in data set [1] (updated analysis, main cohort), the CR is 40% and the PR stood at 13%.
